Measured values from PMC5742115, “Pharmacophore Modeling and in Silico/in Vitro Screening for Human Cytochrome P450 11B1 and Cytochrome P450 11B2 Inhibitors” (Frontiers in Chemistry, 2017).
Values joined by “and” are separate entries in the source; they are usually repeats but may differ in a detail not shown here. Identical values can stand only once. Like-named read-outs stand apart in the source and are kept apart here.

Tests used:
CYP11B1 = conditions: 2013, cited from earlier work
CYP11B2 = conditions: 2013, cited from earlier work
human CYP11B2 = target: T1, human CYP11B2 (Homo sapiens, UniProt P19099); assay: CYP11B2 inhibition assay in V79MZh cells; assay type: cell-based; conditions: for inhibition at 10 µM: at 10 μM concentration, V79MZh cells; for IC50: human CYP11B2 expressed in hamster V79MZh cells, mean of at least three experiments
T1 construct: expressed in transfected cells; host or cells: hamster V79MZh cells
T1 sequence (P19099 25-503): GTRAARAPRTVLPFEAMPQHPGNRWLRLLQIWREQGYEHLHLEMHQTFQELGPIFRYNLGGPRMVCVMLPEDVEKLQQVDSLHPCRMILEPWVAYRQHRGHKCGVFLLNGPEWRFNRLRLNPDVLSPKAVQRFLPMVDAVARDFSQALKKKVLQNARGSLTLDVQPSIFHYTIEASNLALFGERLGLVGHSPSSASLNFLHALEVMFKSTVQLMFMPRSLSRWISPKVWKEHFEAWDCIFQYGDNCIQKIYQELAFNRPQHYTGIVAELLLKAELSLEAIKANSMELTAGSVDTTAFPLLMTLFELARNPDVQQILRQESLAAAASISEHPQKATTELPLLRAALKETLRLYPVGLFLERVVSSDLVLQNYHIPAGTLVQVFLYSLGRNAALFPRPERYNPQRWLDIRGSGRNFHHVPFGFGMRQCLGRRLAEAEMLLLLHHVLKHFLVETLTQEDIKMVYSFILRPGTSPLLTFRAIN
Description: (§1) The selected potential inhibitors were dissolved in DMSO at a concentration of 10 mM to generate stock solutions. Various aliquots were then made from fresh stock solutions and each aliquot was tested only once.
(§2) The selected hits were evaluated for their inhibition of human CYP11B1 and CYP11B2 enzymes expressed in hamster V79MZh cells. Approximately […] V79MZh cells were cultured in 24-well cell culture plates for 24 h. The area of each well was 1.9 cm^2. The cells were exposed to various concentrations of inhibitor solutions. The reactions were started by incubating the cells with [^3H]11-deoxycorticosterone. The incubation time for CYP11B1 cells was 15–60 and 50–120 min for CYP11B2 cells. The reactions were stopped by extracting the supernatant with cold ethyl acetate at 4°C. Samples were mixed (10 min), and centrifuged (12,500 rpm). The organic (upper) layer was separated into fresh Eppendorf tubes and dried. The steroids were re-dissolved in methanol-water (65–35%) and were analyzed by radio-HPLC (Denner et al., [1995a]; Ehmer et al., [2002]).

human CYP11B1 = target: T2, human CYP11B1 (Homo sapiens, UniProt P15538); assay: CYP11B1 inhibition assay in V79MZh cells; assay type: cell-based; conditions: for inhibition at 10 µM: at 10 μM concentration, V79MZh cells; for IC50: human CYP11B1 expressed in hamster V79MZh cells, mean of at least three experiments
T2 construct: expressed in transfected cells; host or cells: hamster V79MZh cells
T2 sequence (P15538 25-503): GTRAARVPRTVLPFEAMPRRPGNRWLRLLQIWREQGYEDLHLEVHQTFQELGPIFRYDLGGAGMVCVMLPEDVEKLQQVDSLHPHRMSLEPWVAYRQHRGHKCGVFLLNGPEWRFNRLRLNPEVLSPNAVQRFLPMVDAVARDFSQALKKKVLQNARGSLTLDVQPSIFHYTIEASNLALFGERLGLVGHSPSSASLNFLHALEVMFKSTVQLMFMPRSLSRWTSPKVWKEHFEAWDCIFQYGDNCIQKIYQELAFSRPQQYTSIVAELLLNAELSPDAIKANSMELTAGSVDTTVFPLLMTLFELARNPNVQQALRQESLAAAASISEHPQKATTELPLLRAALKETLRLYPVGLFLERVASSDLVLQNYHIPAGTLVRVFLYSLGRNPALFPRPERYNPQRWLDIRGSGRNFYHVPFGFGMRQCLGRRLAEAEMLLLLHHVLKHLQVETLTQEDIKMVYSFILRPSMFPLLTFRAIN
Description: as §1, §2

Human CYP17 = target: T3, Human CYP17 (Homo sapiens, UniProt P05093); assay: CYP17 inhibition assay; assay type: biochemical; conditions: at 10 μM concentration; for CYP17 inhibition: human CYP17 from Escherichia coli, n.i. = not inhibited
T3 construct: made in house; host or cells: Escherichia coli (5,000 g sediment of the homogenate)
T3 sequence (P05093 1-508): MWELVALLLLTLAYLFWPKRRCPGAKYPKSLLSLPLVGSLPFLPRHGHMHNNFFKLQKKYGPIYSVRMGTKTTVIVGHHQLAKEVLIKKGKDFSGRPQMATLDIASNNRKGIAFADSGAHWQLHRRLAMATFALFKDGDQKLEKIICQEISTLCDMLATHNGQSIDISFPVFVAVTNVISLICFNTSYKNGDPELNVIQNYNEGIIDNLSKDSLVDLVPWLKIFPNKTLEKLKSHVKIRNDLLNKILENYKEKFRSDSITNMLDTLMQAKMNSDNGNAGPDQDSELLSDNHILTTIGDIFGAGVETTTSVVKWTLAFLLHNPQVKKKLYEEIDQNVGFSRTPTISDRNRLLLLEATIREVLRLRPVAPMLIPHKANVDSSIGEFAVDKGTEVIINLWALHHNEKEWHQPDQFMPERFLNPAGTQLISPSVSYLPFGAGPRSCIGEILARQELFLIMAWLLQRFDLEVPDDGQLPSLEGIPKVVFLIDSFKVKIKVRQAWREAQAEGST
Description: The inhibition of CYP17 was investigated using the 5,000 g sediment of homogenized Escherichia coli (Ehmer et al., [2000]). Human CYP17 along with NADPH-P450 reductase was used to perform the assay as described previously. The incubation time for the reaction was 30 min at 37°C. The reaction was started by adding [^3H]-progesterone, and was quenched with 1 M HCl. The reaction mixture was extracted twice with ethyl acetate at 4°C in order to avoid impurities. The samples were dried, prepared with methanol, and analyzed with radio-HPLC. DSMO was used as negative control.

[1] = reported activity, supplementary Table 1, ref Pinto-Bazurco Mendieta et al., read-out: CYP11B1 IC50
[2] = reported activity, supplementary Table 1, ref Pinto-Bazurco Mendieta et al., read-out: CYP11B2 IC50
[3] = reported activity, supplementary Table 1, ref Meredith et al., read-out: CYP11B1 IC50
[4] = reported activity, supplementary Table 1, ref Meredith et al., read-out: CYP11B2 IC50
[5] = Figure 2, ref Yin et al., 2012, Emmerich et al., Gobbi et al., 2016, read-out: hCYP11B1 IC50
[6] = Figure 2, ref Yin et al., 2012, Emmerich et al., Gobbi et al., 2016, read-out: hCYP11B2 IC50
[7] = Figure 3, training compounds, ref Meredith et al., read-out: hCYP11B1 IC50
[8] = Figure 3, training compounds, ref Meredith et al., read-out: hCYP11B2 IC50

COc1ccc2ccc(-c3cncnc3)c(Cl)c2c1 [CHEMBL2420685]
IC50 (CYP11B1; [1]): 12300 nM
IC50 (CYP11B2; [2]): 72 nM

Oc1ccc2ccc(-c3cncnc3)c(Cl)c2c1 [CHEMBL2420686]
IC50 (CYP11B1; [1]): 2430 nM
IC50 (CYP11B2; [2]): 22 nM

COc1ccc2ccc(-c3cncc4ccccc34)c(Cl)c2c1 [CHEMBL2420687]
IC50 (CYP11B1; [1]): 362 nM
IC50 (CYP11B2; [2]): 54 nM

Oc1ccc2ccc(-c3cncc4ccccc34)c(Cl)c2c1 [CHEMBL2420688]
IC50 (CYP11B1; [1]): 238 nM
IC50 (CYP11B2; [2]): 66 nM

N#Cc1ccc([C@H]2CCCCc3cncn32)c(F)c1 [CHEMBL3099683]
IC50 (CYP11B1; [3]): 1 nM
IC50 (CYP11B2; [4]): 0.3 nM

N#Cc1ccc([C@@]2(C(=O)OCc3ccc(F)cc3)CCc3cncn32)c(Cl)c1 [CHEMBL3099689]
IC50 (CYP11B1; [3]): 0.1 nM
IC50 (CYP11B2; [4]): 3.8 nM

Cc1cc(C#N)ccc1[C@H]1CCc2cncn21 [CHEMBL3099696]
IC50 (CYP11B1; [3]): 0.9 nM
IC50 (CYP11B2; [4]): 1.5 nM

N#Cc1ccc([C@H]2CCCCc3cncn32)c(-c2ccc(F)cc2)c1 [CHEMBL3099704]
IC50 (CYP11B1; [3]): 0.4 nM
IC50 (CYP11B2; [4]): 0.3 nM

Cc1cncc(Cc2ccc(-c3ccccc3)nc2)c1 [Compound 1]
IC50 (CYP11B1; [5]): 2 nM
IC50 (CYP11B2; [6]): 33 nM

O=C1CCc2cc(C(C3CC3)n3ccnc3)cc3c2N1CC3 (centres unmarked) [Compound 2]
IC50 (CYP11B1; [5]): 2.2 nM
IC50 (CYP11B2; [6]): 24 nM

O=c1c(Cn2ccnc2)c(-c2ccccc2)oc2cc(F)ccc12 [Compound 3]
IC50 (CYP11B1; [5]): 9.7 nM
IC50 (CYP11B2; [6]): 94.9 nM

N#Cc1ccc([C@@H]2CCCCc3cncn32)c(-c2ccc(F)cc2)c1 [Compound 4]
IC50 (CYP11B1; [7]): 0.4 nM
IC50 (CYP11B2; [8]): 0.3 nM

N#Cc1ccc(C2(C(=O)OCc3ccc(F)cc3)CCc3cncn32)c(Cl)c1 (centres unmarked) [Compound 5]
IC50 (CYP11B1; [7]): < 0.1 nM
IC50 (CYP11B2; [8]): 3.8 nM

CC(C)CC(=O)Nc1ccc(Cc2ccncc2)cc1 [Compound 8]
inhibition at 10 µM (human CYP11B2): > 50%
IC50 (human CYP11B2): 2770 ± 480 nM
inhibition at 10 µM (human CYP11B1): > 50%
IC50 (human CYP11B1): 3040 ± 720 nM
inhibition at 10 µM (Human CYP17): ≤ 3%
CYP17 inhibition (Human CYP17): n.i.^e

CC(OCc1ccc(F)cc1)n1ccnc1 (centres unmarked) [Compound 9]
inhibition at 10 µM (human CYP11B2): > 50%
IC50 (human CYP11B2): 80 ± 5 nM
inhibition at 10 µM (human CYP11B1): > 50%
IC50 (human CYP11B1): 210 ± 40 nM
inhibition at 10 µM (Human CYP17): ≤ 3%
CYP17 inhibition (Human CYP17): n.i.

COc1cc(Cl)c(S(=O)(=O)n2ccnc2)cc1Cl [Compound 10]
inhibition at 10 µM (human CYP11B2): > 50%
IC50 (human CYP11B2): 110 ± 20 nM
inhibition at 10 µM (human CYP11B1): > 50%
IC50 (human CYP11B1): 130 ± 20 nM
inhibition at 10 µM (Human CYP17): ≤ 3%
CYP17 inhibition (Human CYP17): n.i.

CN(C)C(c1ccccc1)c1nnnn1-c1ccc(Cl)cc1 (centres unmarked) [Compound 11]
IC50 (human CYP11B2): 15600 ± 8450 nM
selectivity factor for CYP11B1 inhibition over CYP11B2 (human CYP11B1; from IC50 values): 6
IC50 (human CYP11B1): 2500 nM and 2520 nM

c1ccc2c(-c3nn4cnnc4s3)cccc2c1 [Compound 12]
IC50 (human CYP11B2): 1100 nM and 1120 nM
inhibition at 10 µM (human CYP11B1): 33 ± 6%
inhibition at 10 µM (Human CYP17): ≤ 3%
CYP17 inhibition (Human CYP17): n.i.
